Experimental data taken from patent EP4342468A1, “TOLEBRUTINIB SALT AND CRYSTAL FORM THEREOF, PREPARATION METHOD THEREFOR, PHARMACEUTICAL COMPOSITION THEREOF, AND USE THEREOF” (Hangzhou Solipharma Co., Ltd., priority 2021, dated 2022).
Where a name gives a salt, the structure may show the parent alone. Each block holds one molecule with its values, some of them ahead of it.

Key:
Type in all cases: physicochemical
[1] = Stability study of the solid forms under long-term, accelerated, light and oxidation conditions (HPLC and XRPD); conditions: for Purity after placing / Purity after: HPLC; for Purity after placing: initial purity 99.46%; for Sample after placing / crystal form after storage: XRPD; for Purity after: initial purity 99.50%
Description: In this application, X-ray powder diffraction (XRPD) data were collected using a BrukerD8 Advance diffractometer; parameters are as follows: Cu radiation; wavelength: 1.54Å; Current voltage: 40KV, 40mA; Scan range: 3 to 40°2θ.
In this application, the HPLC parameters for chemical stability and solubility are as follows:
An appropriate amount of Form 2 of tolebrutinib monohydrochloride prepared in example 2-1 of this application was placed under long-term (25°C/60% RH/open), accelerated (40°C/75% RH/open), light (25°C/4500lx/closed), and oxidation (in a urea peroxide atmosphere) conditions. Table 1 Stability of Form 2 of tolebrutinib monohydrochloride
An appropriate amount of tolebrutinib monohydrochloride Form1 sample prepared in Example 3-1 of this application was taken and placed under long-term (25°C/60% RH/open) and accelerated (40°C/75% RH/open) conditions, HPLC and XRPD testing were regularly conducted. Table 2 Stability of Form 1 of tolebrutinib monohydrochloride

[2] = Solubility in water (supersaturated solution, content by HPLC); conditions: for Solubility: 2 hours, monohydrochloride
Source text: In this application, the HPLC parameters for chemical stability and solubility are as follows: […]

[3] = Dynamic vapor sorption (DVS) hygroscopicity
Description: In this application, dynamic moisture adsorption analysis (DVS) data and isothermal adsorption analysis data were obtained using a TA Instruments Q5000 TGA; parameters are as follows: temperature: 25°C; relative humidity range: 0%RH-80%RH; dm/dt =0.001%/min; equilibration time: 90min; gas: N2; sample pan: platinum pan.

[4] = Compressibility study (tablet compression, hardness, tensile strength); conditions: for hardness: radial breaking force, tablet hardness tester, main pressure 1.8 KN; for diameters / thicknesses: tablet, Φ7.5mm punch, mean main pressure 1.8 KN
Description: The tablet compression was conducted using a Tianxiang rotary tablet press. A circular punch with a diameter of 7.5 mm (Φ7.5mm), a filling depth of 17.9 mm and a mean main pressure of 1.8 KN were used. The tablets' radial breaking force (hardness, H) was measured using a tablet hardness tester. The tablets' diameter (D) and thickness (L) were measured using a vernier caliper. The tensile strength (T) of the powder was calculated using the formula T=2H/πDL*9.8. The results are shown in Table 5: Table 5 Compressibility of Form 2 of tolebrutinib monohydrochloride and Form 1 of tolebrutinib monohydrochloride

[5] = Stability of the crystal form in tablets (XRPD before and after storage); conditions: 25°C/60% RH
Description: (§1) Following the formulation in Table 6, API, lactose hydrate, polyvinylpyrrolidone, hydroxypropyl cellulose, microcrystalline cellulose and magnesium stearate were mixed and compressed to obtain a tablet core. Subsequently, the tablet cores were coated with a solution/suspension for film coating. Table 6 Tablet formulations
The tablets containg Form 2 of tolebrutinib monohydrochloride Form 2 tablets and Form 1 of tolebrutinib monohydrochloride were placed at 25°C/60% RH for 14 days, respectively. XRPD tests were performed before and after storage. The XRPD comparison plots before and after storage are shown in FIG. 26 and FIG. 27, respectively.

[6] = Crystal form before and after the tableting process (XRPD)
Source text: as §1

[7] = Stability study of the solid forms under long-term, accelerated, light and oxidation conditions (HPLC and XRPD); conditions: long-term (25°C/60%RH) and accelerated (40°C/75%RH) conditions for 14 days; XRPD
[8] = light (25°C/4500lx/closed) and oxidation (in a urea peroxide atmosphere) conditions
[9] = listed as Form 1 of monohydrochloride
[10] = light, 25°C/45001x/closed, 14 days
[11] = long-term (25°C/60%RH) and accelerated (40°C/75%RH) conditions for 14 days
[12] = oxidation, in a urea peroxide atmosphere, 14 days
[13] = listed as Form 2 of monohydrochloride

Purity after placing ([1]; 25°C/60%RH/open, 10 months): 99.37%
Sample after placing ([1]; 25°C/60%RH/open, 10 months): Form 1 of monohydrochloride
Purity after placing ([1]; 40°C/75%RH/open, 10 months): 98.63%
Sample after placing ([1]; 40°C/75%RH/open, 10 months): Form 1 of monohydrochloride
time remaining stable [1, 8]: at least 14 days
time remaining stable ([1]; long-term (25°C/60% RH/open) and accelerated (40°C/75% RH/open) conditions, monohydrochloride): at least 10 months
crystal form after storage ([1]; long-term and accelerated conditions for 10 months): remains unchanged
Solubility ([2]; listed as Form 1 of the monohydrochloride salt of tolebrutinib): approximately 8.3 mg/mL
Solubility [2]: 8260 µg/mL
DVS weight change ([3]; between 20% RH to 80% RH at 25 °C): about 1.2%
weight gain (hygroscopicity) ([3]; humidity range of 0%RH to 80%RH): ~0.9%
tensile strength ([4]; calculated with T=2H/πDL*9.8, listed as Form 1 of monohydrochloride): 1.2 MPa
hardness [4, 9]: 6.16 kg
diameters [4, 9]: 7.49 mm
thicknesses [4, 9]: 4.19 mm
time crystal form remains stable in tablets / formulation with excipients [5]: at least 14 days
crystal form before and after the tableting process [6]: remained unchanged
Structure (SMILES): C=CC(=O)N1CCC[C@@H](n2c(=O)n(-c3ccc(Oc4ccccc4)cc3)c3c(N)nccc32)C1 [Form 1 of tolebrutinib monohydrochloride, tolebrutinib monohydrochloride]

Purity after ([1]; 25°C/60%RH/open, 14 days): 99.26%
Sample after placing ([1]; 25°C/60%RH/open, 14 days): Form 2 of monohydrochloride
Purity after ([1]; 40°C/75%RH/open, 14 days): 99.30%
Sample after placing ([1]; 40°C/75%RH/open, 14 days): Form 2 of monohydrochloride
time remaining stable [1, 8]: at least 14 days
Purity after [1, 10]: 99.35%
Sample after placing [1, 10]: Form 2 of monohydrochloride
time remaining stable ([1]; long-term (25°C/60% RH/open) and accelerated (40°C/75% RH/open) conditions, listed as Form 2 of monohydrochloride, monohydrochloride): at least 14 days
crystal form after storage [1, 11]: remains unchanged
Purity after [1, 12]: 99.07%
Sample after placing [1, 12]: Form 2 of monohydrochloride
solubility at 2 hours ([2]; water, thermodynamic from solid): ~7000 µg/mL
crystal form before and after DVS ([3]; XRPD before and after DVS): remained unchanged
tensile strength ([4]; calculated with T=2H/πDL*9.8, listed as Form 2 of monohydrochloride): 1.0 MPa
hardness [4, 13]: 5.33 kg
diameters [4, 13]: 7.50 mm
thicknesses [4, 13]: 4.23 mm
time crystal form remains stable in tablets / formulation with excipients [5]: at least 14 days
crystal form before and after the tableting process [6]: remained unchanged
Structure (SMILES): C=CC(=O)N1CCC[C@@H](n2c(=O)n(-c3ccc(Oc4ccccc4)cc3)c3c(N)nccc32)C1 [Form 2 of tolebrutinib monohydrochloride, tolebrutinib monohydrochloride]

Structure (SMILES): C=CC(=O)N1CCCC(n2c(=O)n(-c3ccc(Oc4ccccc4)cc3)c3c(N)nccc32)C1.O=C(O)C=CC(=O)O (centres unmarked) [maleate Form 1, tolebrutinib maleate]
crystal form after storage [1, 11]: remained the same crystalline form
crystal form after storage [7]: remains unchanged
